Source: the supplement of paper PMC10307832

Legend:
Assay in all cases: relative viability (nuclei count vs DMSO), 5 days (fraction); higher = more cells survive
A-427 = system: A-427
How it was run: (§1)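 Relative viability equals treated-well nuclei counts divided by vehicle-well nuclei counts. Counts came from 4× images of lung cancer cell lines grown in 1536-well plates for 5 days after pin-tool dosing on the day after seeding. Dosing used one drug alone or a fixed anchor-drug dose plus five library-drug doses (not always all listed) in √10 steps, and values are medians of duplicate plates.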

ABC-1 = system: ABC-1
How it was run: as §1

BEN = system: BEN
How it was run: as §1

HARA = system: HARA
How it was run: as §1

LCLC-103H = system: LCLC-103H
How it was run: as §1

LK-2 = system: LK-2
How it was run: as §1

LOU-NH91 = system: LOU-NH91
How it was run: as §1

LU99A = system: LU99A
How it was run: as §1

LXF-289 = system: LXF-289
How it was run: as §1

NCI-H1437 = system: NCI-H1437
How it was run: as §1

NCI-H1666 = system: NCI-H1666
How it was run: as §1

NCI-H1755 = system: NCI-H1755
How it was run: as §1

NCI-H1793 = system: NCI-H1793
How it was run: as §1

NCI-H1993 = system: NCI-H1993
How it was run: as §1

NCI-H2085 = system: NCI-H2085
How it was run: as §1

NCI-H2170 = system: NCI-H2170
How it was run: as §1

NCI-H2342 = system: NCI-H2342
How it was run: as §1

NCI-H23 = system: NCI-H23
How it was run: as §1

NCI-H2405 = system: NCI-H2405
How it was run: as §1

NCI-H3122 = system: NCI-H3122
How it was run: as §1

NCI-H661 = system: NCI-H661
How it was run: as §1

PC-14 = system: PC-14
How it was run: as §1

RERF-LC-KJ = system: RERF-LC-KJ
How it was run: as §1

Oc1nc(-c2ccc(C(F)(F)F)cc2)nc2c1CSCC2 [XAV939] + Nc1ncn([C@H]2C[C@H](O)[C@@H](CO)O2)c(=O)n1 [Decitabine] (partner 2 µM)
relative viability (A-427; first compound 0.08 µM): 0.627
relative viability (A-427; first compound 0.253 µM): 0.606
relative viability (A-427; first compound 0.8 µM): 0.527
relative viability (A-427; first compound 2.53 µM): 0.518
relative viability (ABC-1; first compound 0.253 µM): 1.27
relative viability (ABC-1; first compound 0.8 µM): 0.975
relative viability (ABC-1; first compound 2.53 µM): 0.655
relative viability (BEN; first compound 0.08 µM): 0.73
relative viability (BEN; first compound 0.253 µM): 0.72
relative viability (BEN; first compound 0.8 µM): 0.763
relative viability (BEN; first compound 2.53 µM): 0.597
relative viability (HARA; first compound 0.08 µM): 0.552
relative viability (HARA; first compound 0.253 µM): 0.51
relative viability (HARA; first compound 0.8 µM): 0.626
relative viability (HARA; first compound 2.53 µM): 0.379
relative viability (LCLC-103H; first compound 0.08 µM): 0.756
relative viability (LCLC-103H; first compound 0.253 µM): 0.587
relative viability (LCLC-103H; first compound 0.8 µM): 0.687
relative viability (LCLC-103H; first compound 2.53 µM): 0.642
relative viability (LK-2; first compound 0.08 µM): 0.263
relative viability (LK-2; first compound 0.253 µM): 0.322
relative viability (LK-2; first compound 0.8 µM): 0.318
relative viability (LK-2; first compound 2.53 µM): 0.189
relative viability (LOU-NH91; first compound 0.08 µM): 0.806
relative viability (LOU-NH91; first compound 0.253 µM): 0.75
relative viability (LOU-NH91; first compound 0.8 µM): 0.819
relative viability (LOU-NH91; first compound 2.53 µM): 0.801
relative viability (LU99A; first compound 0.08 µM): 0.986
relative viability (LU99A; first compound 0.253 µM): 0.725
relative viability (LU99A; first compound 0.8 µM): 0.807
relative viability (LU99A; first compound 2.53 µM): 0.921
relative viability (LXF-289; first compound 0.08 µM): 0.388
relative viability (LXF-289; first compound 0.253 µM): 0.38
relative viability (LXF-289; first compound 0.8 µM): 0.416
relative viability (LXF-289; first compound 2.53 µM): 0.345
relative viability (NCI-H1437; first compound 0.08 µM): 0.626
relative viability (NCI-H1437; first compound 0.253 µM): 0.478
relative viability (NCI-H1437; first compound 0.8 µM): 0.539
relative viability (NCI-H1437; first compound 2.53 µM): 0.431
relative viability (NCI-H1666; first compound 0.08 µM): 0.747
relative viability (NCI-H1666; first compound 0.253 µM): 0.674
relative viability (NCI-H1666; first compound 0.8 µM): 0.678
relative viability (NCI-H1666; first compound 2.53 µM): 0.531
relative viability (NCI-H1755; first compound 0.08 µM): 0.693
relative viability (NCI-H1755; first compound 0.253 µM): 0.677
relative viability (NCI-H1755; first compound 0.8 µM): 0.72
relative viability (NCI-H1755; first compound 2.53 µM): 0.691
relative viability (NCI-H1793; first compound 0.08 µM): 0.506
relative viability (NCI-H1793; first compound 0.253 µM): 0.403
relative viability (NCI-H1793; first compound 0.8 µM): 0.549
relative viability (NCI-H1793; first compound 2.53 µM): 0.416
relative viability (NCI-H1993; first compound 0.08 µM): 0.527
relative viability (NCI-H1993; first compound 0.253 µM): 0.224
relative viability (NCI-H1993; first compound 0.8 µM): 0.567
relative viability (NCI-H1993; first compound 2.53 µM): 0.467
relative viability (NCI-H2085; first compound 0.08 µM): 0.536
relative viability (NCI-H2085; first compound 0.253 µM): 0.494
relative viability (NCI-H2085; first compound 0.8 µM): 0.537
relative viability (NCI-H2085; first compound 2.53 µM): 0.462
relative viability (NCI-H2170; first compound 0.08 µM): 0.472
relative viability (NCI-H2170; first compound 0.253 µM): 0.484
relative viability (NCI-H2170; first compound 0.8 µM): 0.455
relative viability (NCI-H2170; first compound 2.53 µM): 0.385
relative viability (NCI-H2342; first compound 0.08 µM): 0.832
relative viability (NCI-H2342; first compound 0.253 µM): 0.669
relative viability (NCI-H2342; first compound 0.8 µM): 0.72
relative viability (NCI-H2342; first compound 2.53 µM): 0.427
relative viability (NCI-H23; first compound 0.08 µM): 0.312
relative viability (NCI-H23; first compound 0.8 µM): 0.32
relative viability (NCI-H23; first compound 2.53 µM): 0.273
relative viability (NCI-H2405; first compound 0.08 µM): 0.776
relative viability (NCI-H2405; first compound 0.253 µM): 0.721
relative viability (NCI-H2405; first compound 0.8 µM): 0.709
relative viability (NCI-H2405; first compound 2.53 µM): 0.689
relative viability (NCI-H3122; first compound 0.08 µM): 0.572
relative viability (NCI-H3122; first compound 0.253 µM): 0.401
relative viability (NCI-H3122; first compound 0.8 µM): 0.51
relative viability (NCI-H3122; first compound 2.53 µM): 0.394
relative viability (NCI-H661; first compound 0.08 µM): 0.542
relative viability (NCI-H661; first compound 0.253 µM): 0.493
relative viability (NCI-H661; first compound 0.8 µM): 0.544
relative viability (NCI-H661; first compound 2.53 µM): 0.509
relative viability (PC-14; first compound 0.08 µM): 0.203
relative viability (PC-14; first compound 0.253 µM): 0.224
relative viability (PC-14; first compound 0.8 µM): 0.165
relative viability (PC-14; first compound 2.53 µM): 0.18
relative viability (RERF-LC-KJ; first compound 0.08 µM): 0.717
relative viability (RERF-LC-KJ; first compound 0.253 µM): 0.657
relative viability (RERF-LC-KJ; first compound 0.8 µM): 0.583
relative viability (RERF-LC-KJ; first compound 2.53 µM): 0.552
